Patent publication US5478726A, “Mycobacterial recombinants and peptides” (priority 1992, dated 1995)

Columns and labels:
T cell clone A7JM = settings: A7JM against macrophages pulsed with the antigen; 7 days
T cell clone K8AH = settings: K8AH against macrophages pulsed with the antigen; 7 days
[1] = system: serum from human patients known to be infected with M. tuberculosis; type: binding; settings: Western blot; preliminary studies

## CC[C@H](C)[C@H](NC(=O)[C@H](Cc1ccc(O)cc1)NC(=O)[C@@H]1CCCN1C(=O)[C@H](CC(=O)O)NC(=O)[C@H](CCC(=O)O)NC(=O)[C@H](CC(C)C)NC(=O)[C@@H](NC(=O)[C@H](C)N)C(C)C)C(=O)N[C@@H](CC(C)C)C(=O)N[C@@H](CC(C)C)C(=O)N[C@H](C(=O)N[C@@H](CO)C(=O)N[C@@H](CO)C(=O)N[C@@H](CCCCN)C(=O)N[C@H](C(=O)O)C(C)C)C(C)C [Peptide 22, A V L E D P Y I L L V S S K V]
T cell clone A7JM
  Cytotoxicity: 82.7 ± 10 percentages

## CC[C@H](C)[C@H](NC(=O)[C@@H](NC(=O)[C@H](CCCCN)NC(=O)[C@H](CCC(=O)O)NC(=O)[C@H](CC(C)C)NC(=O)[C@H](CC(C)C)NC(=O)[C@@H]1CCCN1C(=O)[C@H](CC(C)C)NC(=O)[C@@H](N)CC(C)C)C(C)C)C(=O)NCC(=O)N[C@@H](C)C(=O)NCC(=O)N[C@@H](CCCCN)C(=O)N1CCC[C@H]1C(=O)N[C@@H](CC(C)C)C(=O)O [Peptide 24, L L P L L E K V I G A G K P L]
T cell clone K8AH
  Cytotoxicity: 86.5 ± 0.6 percentages

## purified recombinant 65KD protein: purified recombinant 65KD (540 amino acid residue) protein of M. tuberculosis
[1]
  Immunoreaction with antisera from infected patients: immunoreacted
